The source of these data is paper PMC6222706, “Evaluation of the Antioxidant and Neuroprotectant Activities of New Asymmetrical 1,3-Diketones” (Molecules : A Journal of Synthetic Chemistry and Natural …, 2018).

A short description of series [1]: Kinetic solubility by UV spectrometry in 10 mM PBS. To be noted: 10 mM phosphate buffered saline, aqueous buffer, kinetic from dmso stock. The class given is physicochemical. How it is done: Among the most important physicochemical parameters in drug-discovery, solubility and chemical stability in aqueous media are the determinants for non-toxic and brain-permeable drug-like compounds with good bioavailability. So, compounds with good aqueous solubility are the best candidates for drug-discovery progression. […] The assays were performed at room temperature, in 10 mM Phosphate Buffered Saline (PBS) from compound stocks in DMSO at 20 mM concentration.
A modified protocol was used from that described by Hoelke et al. for the determination of the kinetic solubility from DMSO compound solutions. A compound calibration curve (compound concentration vs. UV absorption) was prepared on a 48 well plate for each compound with concentrations in the range of 10 µM to […]. Each compound dilution was carried out by pipetting defined volumes of a 20 mM stock compound solution in DMSO into the wells and adding PBS 10 mM to reach a final volume of 500 µL/well. The final amount of DMSO per well was 2%. For the lower compound concentrations, an additional volume of DMSO was added into each well to reach the 2% of DMSO. Then, 200 µL of each dilution was transferred to a new 96 well plate for the measurement of the UV-spectra. One well in each row was left without compound as a blank and its UV absorbance was used as an offset correction. The experiments were carried out by duplicate.
In parallel compound saturation solutions were obtained and filtered from 20 mM compound stock in DMSO. So, 10 µL of 20 mM stock solution were dispensed to 190 µL of PBS 10 mM. The solutions were mixed, shaken in a microplate shaker for two hours, and then 160 µL of each solution were filtered and transferred to a new well plate for UV absorption measure. The compound stability in PBS 10 mM was determined at 24, 48 and 72 h with solutions prepared as those for the compound calibration curve.
Measurement of the UV-spectra was performed using a Varioskan microplate reader and spectra were taken in the range of 270–600 nm. Spectral bandwidth was set to 5 nm and the data pint interval was 10 nm. […]

In a further series the test system is SH-SY5Y cells. Put plainly: Mitochondrial membrane potential by flow cytometry (JC-1) in SH-SY5Y cells under H2O2. The class given is cell-based, human. To be noted: 7b for 24 h, then 400 µM H2O2 for 4 h, JC-1 flow cytometry. The method, then:
To confirm this MMP recovery results, flow cytometry experiments were carried out with compound 7b and SH-SY5Y cells. Cells were treated with 7b for 24 h and then were exposed to 400 µM H2O2 for 4 h. JC-1 was used as fluorescence indicator of MMP state. In flow cytometry studies of MMP, JC-1 is excited at 488 nm wavelength. Both JC-1 aggregates and monomers show green fluorescence (peak emission at 527 nm) measured in the FL1 channel. […] Thus, healthy non-apoptotic cells are detected in both FL1 and FL2 channels, while cells with disrupted mitochondrial function show fluorescence in FL1 channel but reduced FL2 intensity. […] From these flow cytometry experiments, we can confirm that after compound 7b treatment there is a significant MMP recovery in SH-SY5Y cells under oxidative stress pressure.
For MMP flow cytometry studies, 10^5 SH-SY5Y cells were seeded in 6 well plates. After 24 h, cells were treated with test compound and incubated for other 24 h. After the treatment period, cells were exposed to H2O2 for 4 h. Then, cells were washed twice with Hanks buffer and stained with 5 µM JC-1 in culture media in dark, in a CO2 incubator at 37 °C for 20 min. After the staining period, cells were washed three times with Hanks buffer, collected and resuspended in 500 µL culture media. Data were obtained and analyzed using an Accuri C6 flow cytometer (BD Biosciences, Ann Arbour, MI, USA). […]
(In general: A flow cytometer gives signals particle by particle.)

Values after ≈ are worked out from the molar mass of the structure shown.

As usually defined, the solubility is how much of the substance goes into solution per volume. A high value points to much dissolved substance. In turn, `O=C(/C=C(O)/C=C/c1ccc(O)c(F)c1F)C(F)(F)F` [Compound 7b, (3Z,5E)-6-(2,3-Difluoro-4-hydroxyphenyl)-1,1,1-trifluoro-4-hydroxyhexa-3,5-dien-2-one] showed a solubility at 2 h in series [1] of 298 ± 7 µg/mL (≈ 1010 µM). For the same molecule, the FLA-1/FLA-2 ratio entry in the series with SH-SY5Y cells was “significant reduction of that ratio”.

In series [1], `O=C(/C=C(O)/C=C/c1cc(F)c(O)cc1F)C(F)(F)F` [Compound 6b, (3Z,5E)-6-(2,5-difluoro-4-hydroxyphenyl)-1,1,1-trifluoro-4-hydroxyhexa-3,5-dien-2-one] gave a solubility at 2 h of 281 ± 9 µg/mL (≈ 955 µM).
